Common to all, as to type: biochemical
Experiment [1] concerns the target SIK2 (QIK) (SEQ ID NO: 11) (Homo sapiens, UniProt Q9H0K1). Description: SIK2 kinase assay (radiometric, 10 μM ATP). The note with it: read-out: SIK2 (QIK) (SEQ ID NO: 11) kinase inhibition result. How it is done:
Procedure: Enzyme was incubated with substrate peptide in reaction buffer in the presence and absence of test compounds or Staurosporine. All additions were done on ice, followed by the addition of ATP mix. Wells were uniformly mixed using an Eppendorff plate shaker and incubated at 30° C. for 20 min, and stopped by the addition of 5 μL of 3% phosphoric acid. Volume was increased to 100 μL by adding 0.8% phosphoric acid which was then transferred to PC filter mats (Millipore), pre-equilibrated with 70% ethanol and water. Plates were washed thrice with 100 μL 0.8% phosphoric acid and dried for an hour at 60° C.

For experiment [2], the target named is T1, SIK1 (SEQ ID NO: 10) (Homo sapiens, UniProt P57059).
T1 construct: Reaction Biology Corporation (assay service, HotSpot panel)
Briefly: Protein kinase assay, SIK1. To be noted: read-out: SIK1 (SEQ ID NO: 10) kinase inhibition result. As for the experimental part: (§1) Briefly, specific kinase/substrate pairs along with required cofactors were prepared in reaction buffer; 20 mM Hepes (pH 7.5), 10 mMmgCl2, 1 mM EGTA, 0.02% Brij35, 0.02 mg/ml BSA, 0.1 mM Na3VO4, 2 mM DTT, 1% DMSO. Compounds were delivered into the reaction, followed ˜20 min later by addition of a mixture of ATP (Sigma) and 33P ATP (PerkinElmer) to a final concentration of 10 μM. […] IC50 values and curve fits were obtained using Prism (GraphPad Software). Kinome tree representations were prepared using Kinome Mapper (http://www.reactionbiology.com/apps/kinome/mapper/LaunchKinome.htm).

Experiment [3] concerns the target T2, SIK3 (QSK) (SEQ ID NO: 24) (Homo sapiens, UniProt Q9Y2K2).
T2 construct: Reaction Biology Corporation (assay service, HotSpot panel)
Briefly: Protein kinase assay, SIK3. To be noted: read-out: SIK3 (QSK) (SEQ ID NO: 24) kinase inhibition result. As for the experimental part:
as §1

SMILES strings stand for the structures.

T1 sequence (P57059 whole entry): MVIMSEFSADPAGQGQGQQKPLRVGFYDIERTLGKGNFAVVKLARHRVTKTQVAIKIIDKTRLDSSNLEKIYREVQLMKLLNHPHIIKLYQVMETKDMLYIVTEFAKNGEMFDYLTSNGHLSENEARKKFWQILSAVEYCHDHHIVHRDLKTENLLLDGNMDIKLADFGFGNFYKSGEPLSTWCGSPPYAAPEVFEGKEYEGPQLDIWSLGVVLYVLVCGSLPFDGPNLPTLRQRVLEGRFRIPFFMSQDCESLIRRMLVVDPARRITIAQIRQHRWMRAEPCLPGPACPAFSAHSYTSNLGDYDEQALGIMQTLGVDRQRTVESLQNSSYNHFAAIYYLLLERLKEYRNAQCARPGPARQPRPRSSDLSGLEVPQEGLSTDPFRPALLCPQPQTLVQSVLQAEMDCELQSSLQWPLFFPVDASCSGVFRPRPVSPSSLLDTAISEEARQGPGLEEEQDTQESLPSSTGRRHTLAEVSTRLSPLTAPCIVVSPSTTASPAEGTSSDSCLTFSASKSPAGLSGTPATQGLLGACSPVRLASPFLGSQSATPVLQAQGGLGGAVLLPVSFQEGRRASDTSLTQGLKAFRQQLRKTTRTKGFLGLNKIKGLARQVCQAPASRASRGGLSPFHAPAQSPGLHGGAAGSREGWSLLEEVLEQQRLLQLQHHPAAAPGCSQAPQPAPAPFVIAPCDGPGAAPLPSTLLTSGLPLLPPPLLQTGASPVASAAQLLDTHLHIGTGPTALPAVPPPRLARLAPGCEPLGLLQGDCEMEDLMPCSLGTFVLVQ
T2 sequence (Q9Y2K2 whole entry): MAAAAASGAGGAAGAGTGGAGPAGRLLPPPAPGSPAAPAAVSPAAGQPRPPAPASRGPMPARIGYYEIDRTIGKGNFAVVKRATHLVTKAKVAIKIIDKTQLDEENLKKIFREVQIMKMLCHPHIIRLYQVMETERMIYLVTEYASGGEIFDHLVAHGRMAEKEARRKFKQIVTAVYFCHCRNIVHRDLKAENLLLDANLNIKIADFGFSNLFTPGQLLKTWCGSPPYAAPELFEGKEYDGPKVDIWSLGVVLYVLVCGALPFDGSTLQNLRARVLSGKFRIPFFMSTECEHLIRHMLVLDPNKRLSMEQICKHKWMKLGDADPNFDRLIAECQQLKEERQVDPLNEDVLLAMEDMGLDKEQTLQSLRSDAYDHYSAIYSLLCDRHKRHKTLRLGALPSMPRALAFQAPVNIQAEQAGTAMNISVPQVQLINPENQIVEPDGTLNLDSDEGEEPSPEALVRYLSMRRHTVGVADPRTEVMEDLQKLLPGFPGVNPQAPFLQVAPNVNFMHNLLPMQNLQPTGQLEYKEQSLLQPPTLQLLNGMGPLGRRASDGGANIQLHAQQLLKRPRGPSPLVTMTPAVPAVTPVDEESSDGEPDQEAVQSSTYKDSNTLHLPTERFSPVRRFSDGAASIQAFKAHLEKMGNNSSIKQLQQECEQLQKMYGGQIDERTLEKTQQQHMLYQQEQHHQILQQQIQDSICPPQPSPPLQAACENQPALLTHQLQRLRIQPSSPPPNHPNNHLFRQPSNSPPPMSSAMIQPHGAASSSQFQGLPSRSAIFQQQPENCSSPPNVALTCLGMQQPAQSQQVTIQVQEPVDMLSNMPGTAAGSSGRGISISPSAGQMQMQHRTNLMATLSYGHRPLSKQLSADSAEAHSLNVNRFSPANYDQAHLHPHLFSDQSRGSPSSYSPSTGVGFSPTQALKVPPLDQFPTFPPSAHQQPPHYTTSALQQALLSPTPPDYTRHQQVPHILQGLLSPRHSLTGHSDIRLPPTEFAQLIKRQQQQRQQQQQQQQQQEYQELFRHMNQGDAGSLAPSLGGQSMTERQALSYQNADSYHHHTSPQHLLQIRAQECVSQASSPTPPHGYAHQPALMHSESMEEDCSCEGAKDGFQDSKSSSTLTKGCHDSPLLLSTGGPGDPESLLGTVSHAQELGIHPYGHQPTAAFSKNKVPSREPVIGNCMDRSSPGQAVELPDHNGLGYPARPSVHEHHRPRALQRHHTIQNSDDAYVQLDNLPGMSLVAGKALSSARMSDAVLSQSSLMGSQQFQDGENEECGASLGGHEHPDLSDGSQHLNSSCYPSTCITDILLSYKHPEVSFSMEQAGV
SIK2 (QIK) (SEQ ID NO: 11), sequence (Q9H0K1 whole entry): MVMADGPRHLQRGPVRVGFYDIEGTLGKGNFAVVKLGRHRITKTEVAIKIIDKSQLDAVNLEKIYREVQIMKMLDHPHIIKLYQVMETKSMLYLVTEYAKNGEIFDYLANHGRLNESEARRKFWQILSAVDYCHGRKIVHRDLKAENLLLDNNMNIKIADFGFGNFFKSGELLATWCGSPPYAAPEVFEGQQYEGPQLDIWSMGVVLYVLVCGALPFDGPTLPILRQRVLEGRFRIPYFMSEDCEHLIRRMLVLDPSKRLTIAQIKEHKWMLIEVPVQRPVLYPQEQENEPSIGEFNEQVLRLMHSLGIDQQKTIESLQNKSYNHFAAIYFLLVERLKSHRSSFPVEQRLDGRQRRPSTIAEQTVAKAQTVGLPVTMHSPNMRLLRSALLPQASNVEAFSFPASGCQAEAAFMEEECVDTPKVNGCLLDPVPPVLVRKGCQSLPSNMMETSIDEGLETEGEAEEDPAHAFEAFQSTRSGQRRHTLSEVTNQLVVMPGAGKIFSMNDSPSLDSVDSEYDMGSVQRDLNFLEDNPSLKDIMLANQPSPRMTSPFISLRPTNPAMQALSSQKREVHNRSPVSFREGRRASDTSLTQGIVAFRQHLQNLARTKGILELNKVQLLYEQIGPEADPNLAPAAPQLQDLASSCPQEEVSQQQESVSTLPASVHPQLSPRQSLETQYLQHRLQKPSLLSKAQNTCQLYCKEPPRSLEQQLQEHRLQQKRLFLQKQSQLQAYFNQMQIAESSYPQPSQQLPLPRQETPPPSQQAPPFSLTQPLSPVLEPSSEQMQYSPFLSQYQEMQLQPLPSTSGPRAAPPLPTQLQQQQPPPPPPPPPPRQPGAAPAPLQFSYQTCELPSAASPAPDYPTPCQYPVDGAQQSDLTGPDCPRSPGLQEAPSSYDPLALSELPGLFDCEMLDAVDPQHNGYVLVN

With `COc1c(F)cccc1-c1c[nH]c2ncc(-c3cnc(N4CCOCC4)s3)cc12` [Example 176, 4-(5-(3-(3-fluoro-2-methoxyphenyl)-1H-pyrrolo[2,3-b]pyridin-5-yl)thiazol-2-yl)morpholine], the results for the IC50 in experiment [1], in experiment [2] and in experiment [3] were < 100 nM, > 1000 nM and > 100 nM, respectively.
The corresponding values for `COc1c(F)cc(F)cc1-c1c[nH]c2ncc(-c3ccc(CN4CCCC4)s3)cc12` [Example 177, 3-(3,5-difluoro-2-methoxyphenyl)-5-(5-(pyrrolidin-1-ylmethyl)thiophen-2-yl)-1H-pyrrolo[2,3-b]pyridine] are < 100 nM, > 1000 nM and > 100 nM.
With `COc1c(F)cc(F)cc1-c1c[nH]c2ncc(-c3ccc(CN4CCCCC4)s3)cc12` [Example 178, 3-(3,5-difluoro-2-methoxyphenyl)-5-(5-(piperidin-1-ylmethyl)thiophen-2-yl)-1H-pyrrolo[2,3-b]pyridine], the IC50 in experiment [1] is < 100 nM; in experiment [2], > 1000 nM; in experiment [3] it was > 100 nM.
For `COc1c(F)cc(F)cc1-c1c[nH]c2ncc(-c3cnc(N4CCOCC4)s3)cc12` [Example 179, 4-(5-(3-(3,5-difluoro-2-methoxyphenyl)-1H-pyrrolo[2,3-b]pyridin-5-yl)thiazol-2-yl)morpholine], the IC50 in experiment [1] is < 100 nM; in experiment [2], > 1000 nM; in experiment [3], > 100 nM.
As for `COc1c(F)cccc1-c1c[nH]c2ncc(-c3cccc(S(=O)(=O)N(C)C(C)(C)C)c3)cc12` [Example 180], the IC50 in experiment [1] is < 100 nM; in experiment [2], > 1000 nM; in experiment [3], > 100 nM.
For the compound `COc1c(F)cc(F)cc1-c1c[nH]c2ncc(-c3cccc(S(=O)(=O)N(C)C(C)(C)C)c3)cc12` [Example 181, N-(tert-butyl)-3-(3-(3,5-difluoro-2-methoxyphenyl)-1H-pyrrolo[2,3-b]pyridin-5-yl)-N-methylbenzenesulfonamide], the IC50 in experiment [1] is < 100 nM; in experiment [2], > 1000 nM; in experiment [3], > 100 nM.
The like results for `COc1c(F)cccc1-c1c[nH]c2ncc(-c3cccc(S(=O)(=O)N4CCCC4)c3)cc12` [Example 182, 3-(3-fluoro-2-methoxyphenyl)-5-(3-(pyrrolidin-1-ylsulfonyl)phenyl)-1H-pyrrolo[2,3-b]pyridine] were, in that order, < 100 nM, > 1000 nM and > 100 nM.
The corresponding values for `COc1c(F)cc(F)cc1-c1c[nH]c2ncc(-c3cccc(S(=O)(=O)N4CCCC4)c3)cc12` [Example 183, 3-(3,5-difluoro-2-methoxyphenyl)-5-(3-(pyrrolidin-1-ylsulfonyl)phenyl)-1H-pyrrolo[2,3-b]pyridine] are < 100 nM, > 1000 nM and > 100 nM.
The like results for `COc1c(F)cccc1-c1c[nH]c2ncc(-c3cccc(S(=O)(=O)N(C)C)c3)cc12` [Example 184, 3-(3-(3-fluoro-2-methoxyphenyl)-1H-pyrrolo[2,3-b]pyridin-5-yl)-N,N-dimethylbenzenesulfonamide] were, in that order, < 100 nM, > 1000 nM and > 100 nM.
With `COc1c(F)cc(F)cc1-c1c[nH]c2ncc(-c3cccc(S(=O)(=O)N(C)C)c3)cc12` [Example 185, 3-(3-(3,5-difluoro-2-methoxyphenyl)-1H-pyrrolo[2,3-b]pyridin-5-yl)-N,N-dimethylbenzenesulfonamide], the IC50 in experiment [1] was < 100 nM; in experiment [2] it was > 1000 nM; in experiment [3] it was > 100 nM.
The like results for `Oc1ccccc1-c1c[nH]c2ncc(-c3ccc(CN4CCOCC4)s3)cc12` [Example 192, 2-(5-(5-(morpholinomethyl)thiophen-2-yl)-1H-pyrrolo[2,3-b]pyridin-3-yl)phenol] were, in that order, < 100 nM, > 100 nM and > 100 nM.
On to `Oc1c(F)cccc1-c1c[nH]c2ncc(-c3ccc(CN4CCOCC4)s3)cc12` [Example 193, 2-fluoro-6-(5-(5-(morpholinomethyl)thiophen-2-yl)-1H-pyrrolo[2,3-b]pyridin-3-yl)phenol], for which the IC50 in experiment [1] is < 100 nM; in experiment [2], > 100 nM; in experiment [3], > 100 nM.
Take `CN(C(C)(C)C)S(=O)(=O)c1cccc(-c2cnc3[nH]cc(-c4cccc5c4OC(F)(F)O5)c3c2)c1` [Example 196, N-(tertbutyl)-3-(3-(2,2-difluorobenzo[d][1,3]dioxol-4-yl)-1H-pyrrolo[2,3-b]pyridin-5-yl)-N-methylbenzene-sulfonamide]: the IC50 in experiment [1] was < 100 nM; in experiment [2] it was > 100 nM; in experiment [3], < 100 nM.
Regarding `FC1(F)Oc2cccc(-c3c[nH]c4ncc(-c5ccc(CN6CCCC6)s5)cc34)c2O1` [Example 197, 3-(2,2-difluorobenzo[d][1,3]dioxol-4-yl)-5-(5-(pyrrolidin-1-ylmethyl)thiophen-2-yl)-1H-pyrrolo[2,3-b]pyridine], the values for the IC50 in experiment [1], in experiment [2] and in experiment [3] were < 100 nM, > 100 nM and < 100 nM, respectively.
In the case of `FC1(F)Oc2cccc(-c3c[nH]c4ncc(-c5ccc(CN6CCCCC6)s5)cc34)c2O1` [Example 198, 3-(2,2-difluorobenzo[d][1,3]dioxol-4-yl)-5-(5-(piperidin-1-ylmethyl)thiophen-2-yl)-1H-pyrrolo[2,3-b]pyridine], the IC50 in experiment [1] was < 100 nM; in experiment [2] it was > 100 nM; in experiment [3], < 100 nM.
On to `FC1(F)Oc2cccc(-c3c[nH]c4ncc(-c5csc(N6CCOCC6)n5)cc34)c2O1` [Example 199, 4-(4-(3-(2,2-difluorobenzo[d][1,3]dioxol-4-yl)-1H-pyrrolo[2,3-b]pyridin-5-yl)thiazol-2-yl)morpholine], for which the IC50 in experiment [1] was < 100 nM; in experiment [2] it was > 100 nM; in experiment [3], > 100 nM.
Regarding `FC1(F)Oc2ccc(-c3c[nH]c4ncc(-c5ccc(CN6CCOCC6)s5)cc34)cc2O1` [Example 200], the IC50 is < 100 nM in experiment [1], > 100 nM in experiment [2] and < 100 nM in experiment [3].
`FC1(F)Oc2ccc(-c3c[nH]c4ncc(-c5cnc(N6CCOCC6)s5)cc34)cc2O1` [Example 201, 4-(5-(3-(2,2-difluorobenzo[d][1,3]dioxol-5-yl)-1H-pyrrolo[2,3-b]pyridin-5-yl)thiazol-2-yl)morpholine]: the IC50 in experiment [1], in experiment [2] and in experiment [3] was > 1000 nM each time.
On to `CN(C(C)(C)C)S(=O)(=O)c1cccc(-c2cnc3[nH]cc(-c4ccc5c(c4)OC(F)(F)O5)c3c2)c1` [Example 202, N-(tert-butyl)-3-(3-(2,2-difluorobenzo[d][1,3]dioxol-5-yl) 1H-pyrrolo[2,3-b]pyridin-5-yl)-N-methylbenzenesulfonamide], for which the figures for the IC50 in experiment [1], in experiment [2] and in experiment [3] were < 100 nM, > 100 nM and < 100 nM, respectively.
For the compound `FC1(F)Oc2ccc(-c3c[nH]c4ncc(-c5ccc(CN6CCCC6)s5)cc34)cc2O1` [Example 203, 3-(2,2-difluorobenzo[d][1,3]dioxol-5-yl)-5-(5-(pyrrolidin-1-ylmethyl)thiophen-2-yl)-1H-pyrrolo[2,3-b]pyridine], the IC50 in experiment [1] is < 100 nM; in experiment [2], > 1000 nM; in experiment [3], > 1000 nM.
For the compound `FC1(F)Oc2ccc(-c3c[nH]c4ncc(-c5ccc(CN6CCCCC6)s5)cc34)cc2O1` [Example 204, 3-(2,2-difluorobenzo[d][1,3]dioxol-5-yl)-5-(5-(piperidin-1-ylmethyl)thiophen-2-yl)-1H-pyrrolo[2,3-b]pyridine], the IC50 in experiment [1] was < 100 nM; in experiment [2] it was > 100 nM; in experiment [3], < 100 nM.
Regarding `FC1(F)Oc2ccc(-c3c[nH]c4ncc(-c5csc(N6CCOCC6)n5)cc34)cc2O1` [Example 205, 4-(4-(3-(2,2-difluorobenzo[d][1,3]dioxol-5-yl)-1H-pyrrolo[2,3-b]pyridin-5-yl)thiazol-2-yl)morpholine], the IC50 in experiment [1] is < 100 nM; in experiment [2], > 100 nM; in experiment [3] it was < 100 nM.
For `FC1(F)Oc2ccc(-c3c[nH]c4ncc(-c5cnn(C6CCNCC6)c5)cc34)cc2O1` [Example 206, 3-(2,2-difluorobenzo[d][1,3]dioxol-5-yl)-5-(1-(piperidin-4-yl)-1H-pyrazol-4-yl)-1H-pyrrolo[2,3-b]pyridine], the IC50 in experiment [1] is < 100 nM; in experiment [2], > 100 nM; in experiment [3] it was < 100 nM.
Regarding `COc1c(F)cccc1-c1c[nH]c2ncc(-c3csc(N4CCOCC4)n3)cc12` [Example 207, 4-(4-(3-(3-fluoro-2-methoxyphenyl)-1H-pyrrolo[2,3-b]pyridin-5-yl)thiazol-2-yl)morpholine], the IC50 in experiment [1] was < 100 nM; in experiment [2], > 100 nM; in experiment [3], < 100 nM.
On to `COc1c(F)cc(F)cc1-c1c[nH]c2ncc(-c3csc(N4CCOCC4)n3)cc12` [Example 208, 4-(4-(3-(3,5-difluoro-2-methoxyphenyl)-1H-pyrrolo[2,3-b]pyridin-5-yl)thiazol-2-yl)morpholine], for which the IC50 in experiment [1] was < 100 nM; in experiment [2] it was > 100 nM; in experiment [3], < 100 nM.

These data come from patent publication US9890153B2, “Substituted 1H-pyrrolo [2, 3-b] pyridine and 1H-pyrazolo [3, 4-b] pyridine derivatives as salt inducible kinase 2 (SIK2) inhibitors” (Arrien Pharmaceuticals LLC, priority 2012, dated 2018).
